The subject of the data set is Vibrio fischeri NRRL-B-11177. In words: Microtox™ toxicity test (light emission of bioluminescent bacterium). It is filed as cell-based. The settings on record: constituent at the loading given; for EC50 Result (%): normally 50% light reduction over 15 minute at 15°C. Here is the method:
Under the Microtox™ protocols, the viability of known bacterial cultures is measured within a sample to produce a numeric result as well as a “pass/fail” indication.
The test is performed by rehydrating freeze dried cultures of the organism, supplied as the Microtox™ reagent and determining the initial light output of homogenized bacterial suspensions. Aliquots of osmotically adjusted sample and sample dilutions are added to the bacterial suspension, and light measurements are made at specific intervals (generally at 5 or 15 minutes) after exposure to test samples. The diluent control (blank) is used to correct time-dependant change in light output.
The Microtox™ test endpoint is measured as the effective or inhibitory concentration of a test sample that reduces light emission by a specific amount under defined conditions of time and temperature. Normally, this is expressed as an ECSO(15) or ICSO(15) which is the effective concentration or inhibitory concentration of a sample that reduces light emission of the test organism by 50% over a 15 minute test period at 15°C.
The EC50 or IC50 is calculated by log linear plotting of Concentration (C) vs percent Light Decrease (percent A), or more precisely by plotting Gamma Q (which is the corrected ratio of the amount of light lost to the amount of light remaining) versus Concentration on a log-log graph. Either a hand calculator or computer program data reduction systems may be used to calculate Gamma and the corresponding EC50 or ICSO values.
Thus, the desired loading for a fracturing fluid is determined and the viscosifier diluted to that loading in water and subjected to standardized Microtox™ testing.

“hemicellulase enzyme [hemicellulase enzyme (0.02 wt %)]”: the “EC50 Result (%)” value is over 91%.

`O=CO` [0.002 wt % formic acid, formic acid]: the Pass/Fail result is given as “Pass (>75% EC50 result is required for pass)” and the “EC50 Result (%)” value is on record as over 91%. In the case of `[Cl-].[K+]` [4 wt % KCl water, KCl], the “EC50 Result (%)” value is over 91%. Regarding `C[Si]1(C)O[Si](C)(C)O[Si](C)(C)O[Si](C)(C)O1` [octamethylcyclotetrasiloxane], the Pass/Fail result was “Pass (>75% EC50 result is required for pass)” and the “EC50 Result (%)” value is given as 82%.

The record behind these values is patent US8387699B2, “Green coal bed methane fracturing fluid compositions, methods of preparation and methods of use” (Calfrac Well Services Ltd., priority 2008, dated 2013).
